Assay results: patent US20210040118A1, “IMMUNOMODULATORS, COMPOSITIONS AND METHODS THEREOF” (BETTA PHARMACEUTICALS CO., LTD, priority 2018, published 2021)

What follows are compounds tested against T1, PD-1/PD-L1 (Homo sapiens, UniProt Q9NZQ7) (assay: PD-1/PD-L1 homogenous time-resolved fluorescence (HTRF) binding assay). Details: recombinant human PD-L1 (19-238) His-tag / human PD-1 (25-167) Fc tag, class symbols.
T1 construct: Recombinant human PD-L1 protein (19-238) with a His-tag at the C-terminus; purchased AcroBiosystems PD1-H5229 (PD-L1); PD1-H5257 (PD-1)
Description: Resolved Fluorescence (HTRF) Binding Assay
The assays were conducted in a standard black 384-well polystyrene plate with a final volume of 20 μL. Inhibitors were first serially diluted in DMSO and then added to the plate wells before the addition of other reaction components. The final concentration of DMSO in the assay was 1%. The assays were carried out at 25° C. in the PBS buffer (pH 7.4) with 0.05% Tween-20 and 0.1% BSA. Recombinant human PD-L1 protein (19-238) with a His-tag at the C-terminus was purchased from AcroBiosy stems (PD1-H5229). Recombinant human PD-1 protein (25-167) with Fc tag at the C-terminus was also purchased from AcroBiosystems (PD1-H5257). PD-L1 and PD-1 proteins were diluted in the assay buffer and 10 μL was added to the plate well. Plates were centrifuged and proteins were preincubated with inhibitors for 40 min. The incubation was followed by the addition of […] of HTRF detection buffer supplemented with Europium cryptate-labeled anti-human IgG (PerkinElmer-AD0212) specific for Fc and anti-His antibody conjugated to SureLight®-Allophycocyanin (APC, PerkinElmer-AD0059H). After centrifugation, the plate was incubated at 25° C. for 60 min. Before reading on a PHERAstar FS plate reader (665 nm/620 nm ratio). Final concentrations in the assay were […] PD1, 10 nM PD-L1, 1 nM europium anti-human IgG and 20 nM anti-His-Allophycocyanin. IC50 determination was performed by fitting the curve of percent control activity versus the log of the inhibitor concentration using the GraphPad Prism 5.0 software.
Data obtained for the Example compounds using the PD-1/PD-L1 homogenous time-resolved fluorescence (HTRF) binding assay described in Example A is provided in Table 4.

T1 sequence (Q9NZQ7 19-238): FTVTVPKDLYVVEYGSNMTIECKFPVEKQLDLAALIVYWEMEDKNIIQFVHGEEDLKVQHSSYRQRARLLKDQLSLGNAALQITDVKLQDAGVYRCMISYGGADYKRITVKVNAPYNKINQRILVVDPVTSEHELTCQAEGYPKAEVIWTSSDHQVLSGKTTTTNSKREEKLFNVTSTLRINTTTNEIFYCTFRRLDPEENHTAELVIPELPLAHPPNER

Row | SMILES | IC50
1 | Cc1c(-c2cccc(N(C)Cc3nc4c(s3)CNCC4)c2C)cccc1N(C)Cc1nc2c(s1)CNCC2 [Example 24, N3,N3′,2,2′-tetramethyl-N3,N3′-bis((4,5,6,7-tetrahydrothiazolo[5,4-c]pyridin-2-yl)methyl)-[1,1′-biphenyl]-3,3′-diamine] | 100 to 200 nM
2 | Cc1c(NCc2nc3c(s2)CNCC3)cccc1-c1cccc(NCc2nc3c(s2)CNCC3)c1C [Example 25, 2,2′-dimethyl-N3,N3′-bis((4,5,6,7-tetrahydrothiazolo[5,4-c]pyridin-2-yl)methyl)-[1,1′-biphenyl]-3,3′-diamine] | 25 to 100 nM
3 | Cc1c(NCc2nnc(C3(N)CCC3)s2)cccc1-c1cccc(NCc2nnc(C3(N)CCC3)s2)c1C [Example 26, N3,N3′-bis((5-(1-aminocyclobutyl)-1,3,4-thiadiazol-2-yl)methyl)-2,2′-dimethyl-[1,1′-biphenyl]-3,3′-diamine] | 25 to 100 nM
4 | Cc1nc(C(=O)Nc2cccc(-c3cccc(NC(=O)c4nc(C)c(CN5CCCC5)s4)c3C)c2C)sc1CN1CCCC1 [Example 28, N,N′-(2,2′-dimethyl-[1,1′-biphenyl]-3,3′-diyl)bis(4-methyl-5-(pyrrolidin-1-ylmethyl)thiazole-2-carboxamide)] | < 25 nM
5 | Cc1c(NC(=O)c2ncc(CN3CCCC3)s2)cccc1-c1cccc(NC(=O)c2ncc(CN3CCCC3)s2)c1C [Example 29, N,N′-(2,2′-dimethyl-[1,1′-biphenyl]-3,3′-diyl)bis(5-(pyrrolidin-1-ylmethyl)thiazole-2-carboxamide)] | < 25 nM
6 | Cc1c(NC(=O)c2nc3c(s2)CNCCC3)cccc1-c1cccc(NC(=O)c2nc3c(s2)CNCCC3)c1C [Example 30, N,N′-(2,2′-dimethyl-[1,1′-biphenyl]-3,3′-diyl)bis(5,6,7,8-tetrahydro-4H-thiazolo[5,4-c]azepine-2-carboxamide)] | < 25 nM
7 | Cc1c(NC(=O)c2nnc([C@H](C)N)s2)cccc1-c1cccc(NC(=O)c2nnc([C@H](C)N)s2)c1C [Example 31, N,N′-(2,2′-dimethyl-[1,1′-biphenyl]-3,3′-diyl)bis(5-((S)-1-aminoethyl)-1,3,4-thiadiazole-2-carboxamide)] | < 25 nM
8 | Cc1c(-c2cccc(N(C)C(=O)c3cc4c(s3)CCNC4)c2C)cccc1N(C)C(=O)c1cn2c(n1)CNCC2 [Example 34, N-(2,2′-dimethyl-3′-(N-methyl-5,6,7,8-tetrahydroimidazo[1,2-a]pyrazine-2-carboxamido)-[1,1′-biphenyl]-3-yl)-N-methyl-4,5,6,7-tetrahydrothieno[3,2-c]pyridine-2-carboxamide] | < 25 nM

Second part, the compound after the results:

Row | IC50 | SMILES
9 | < 25 nM | Cc1c(NC(=O)c2cn3c(n2)CNCC3)cccc1-c1cccc(NC(=O)c2cc3c(s2)CCNC3)c1C [Example 35, N-(2,2′-dimethyl-3′-(5,6,7,8-tetrahydroimidazo[1,2-a]pyrazine-2-carboxamido)-[1,1′-biphenyl]-3-yl)-4,5,6,7-tetrahydrothieno[3,2-c]pyridine-2-carboxamide]
10 | < 25 nM | Cc1c(NC(=O)c2cn3c(n2)CN(C(C)CO)CC3)cccc1-c1cccc(NC(=O)c2cn3c(n2)CN(C(C)CO)CC3)c1C (stereo not drawn) [Example 36, N,N′-(2,2′-dimethyl-[1,1′-biphenyl]-3,3′-diyl)bis(7-(1-hydroxypropan-2-yl)-5,6,7,8-tetrahydroimidazo[1,2-a]pyrazine-2-carboxamide)]
11 | < 25 nM | Cc1c(NC(=O)c2nnc(CNC(=N)N)s2)cccc1-c1cccc(NC(=O)c2nnc(CNC(=N)N)s2)c1C [Example 37, N,N′-(2,2′-dimethyl-[1,1′-biphenyl]-3,3′-diyl)bis(5-(guanidinomethyl)-1,3,4-thiadiazole-2-carboxamide)]
12 | < 25 nM | Cc1c(NC(=O)c2nnc(C3(NC(=N)N)CCC3)s2)cccc1-c1cccc(NC(=O)c2nnc(C3(NC(=N)N)CCC3)s2)c1C [Example 38, N,N′-(2,2′-dimethyl-[1,1′-biphenyl]-3,3′-diyl)bis(5-(1-guanidinocyclobutyl)-1,3,4-thiadiazole-2-carboxamide)]
13 | < 25 nM | Cc1c(NC(=O)c2nnc3n2CCNC3)cccc1-c1cccc(NC(=O)c2nnc3n2CCNC3)c1C [Example 39, N,N′-(2,2′-dimethyl-[1,1′-biphenyl]-3,3′-diyl)bis(5,6,7,8-tetrahydro-[1,2,4]triazolo[4,3-a]pyrazine-3-carboxamide)]
14 | < 25 nM | N#Cc1c(NC(=O)c2cn3c(n2)CNCC3)cccc1-c1cccc(NC(=O)c2cn3c(n2)CNCC3)c1C#N [Example 40, N,N′-(2,2′-dicyano-[1,1′-biphenyl]-3,3′-diyl)bis(5,6,7,8-tetrahydroimidazo[1,2-a]pyrazine-2-carboxamide)]
15 | < 25 nM | Cc1c(NC(=O)c2nnc(C3CCCN3)o2)cccc1-c1cccc(NC(=O)c2nnc(C3CCCN3)o2)c1C (stereo not drawn) [Example 41, N,N′-(2,2′-dimethyl-[1,1′-biphenyl]-3,3′-diyl)bis(5-(pyrrolidin-2-yl)-1,3,4-oxadiazole-2-carboxamide)]
16 | < 25 nM | Cc1c(NC(=O)c2cn3c(n2)CNCC3)cccc1-c1cccc(NC(=O)c2cc3c(s2)CNCC3)c1C [Example 42, N-(2,2′-dimethyl-3′-(5,6,7,8-tetrahydroimidazo[1,2-a]pyrazine-2-carboxamido)-[1,1′-biphenyl]-3-yl)-4,5,6,7-tetrahydrothieno[2,3-c]pyridine-2-carboxamide]
17 | < 25 nM | Cc1c(NC(=O)c2nc3c(s2)CN(C(C)CO)CC3)cccc1-c1cccc(NC(=O)c2nc3c(s2)CN(C(C)CO)CC3)c1C (stereo not drawn) [Example 45, N,N′-(2,2′-dimethyl-[1,1′-biphenyl]-3,3′-diyl)bis(5-(1-hydroxypropan-2-yl)-4,5,6,7-tetrahydrothiazolo[5,4-c]pyridine-2-carboxamide)]
18 | < 25 nM | CC(c1nc2c(s1)CN(C)CC2)N1CCc2c(-c3cccc4c3CCN4C(C)c3nc4c(s3)CN(C)CC4)cccc21 (stereo not drawn) [Example 47, 1,1′-bis(1-(5-methyl-4,5,6,7-tetrahydrothiazolo[5,4-c]pyridin-2-yl)ethyl)-4,4′-biindoline]
19 | < 25 nM | Cc1c(NC(=O)c2nc3c(s2)CNCC3)cccc1-c1cccc(NC(=O)c2nc3c(s2)CNCC3)c1Cl [Example 48, N,N′-(2-chloro-2′-methylbiphenyl-3,3′-diyl)bis(4,5,6,7-tetrahydrothiazolo[5,4-c]pyridine-2-carboxamide)]
20 | < 25 nM | Cc1c(NC(=O)c2nc3c(s2)CN(C)CC3)cccc1-c1cccc(NC(=O)c2nc3c(s2)CN(C)CC3)c1Cl [Example 49, N,N′-(2-chloro-2′-methylbiphenyl-3,3′-diyl)bis(5-methyl-4,5,6,7-tetrahydrothiazolo[5,4-c]pyridine-2-carboxamide)]
21 | < 25 nM | Cc1c(NC(=O)c2nc3c(s2)CNCC3)cccc1-c1cccc(NC(=O)c2nc3c(s2)CN(C)CC3)c1Cl [Example 50, N-(2-chloro-2′-methyl-3′-(4,5,6,7-tetrahydrothiazolo[5,4-c]pyridine-2-carboxamido)biphenyl-3-yl)-5-methyl-4,5,6,7-tetrahydrothiazolo[5,4-c]pyridine-2-carboxamide]
22 | < 25 nM | Cc1nc(C(=O)Nc2cccc(-c3cccc(NC(=O)c4nc(C)c(CNCCO)s4)c3C)c2C)sc1CNCCO [Example 51, N,N′-(2,2′-dimethylbiphenyl-3,3′-diyl)bis(5-((2-hydroxyethylamino)methyl)-4-methylthiazole-2-carboxamide)]
23 | < 25 nM | Cc1nc(C(=O)Nc2cccc(-c3cccc(NC(=O)c4nc(C)c(CN5CCCC[C@H]5C(=O)O)s4)c3C)c2C)sc1CN1CCCC[C@H]1C(=O)O [Example 52, (2S,2'S)-1,1′-(2,2′-(2,2′-dimethylbiphenyl-3,3′-diyl)bis(azanediyl)bis(oxomethylene)bis(4-methylthiazole-5,2-diyl))bis(methylene)dipiperidine-2-carboxylic acid]

Same assay, conditions: recombinant human PD-L1 (19-238) His-tag / human PD-1 (25-167) Fc tag, numeric values

Row | IC50 | SMILES
24 | 3.13 nM | Cc1c(NC(=O)c2nnc(C3(N)CCC3)s2)cccc1-c1cccc(NC(=O)c2nnc(C3(N)CCC3)s2)c1C [Example 27, N,N′-(2,2′-dimethyl-[1,1′-biphenyl]-3,3′-diyl)bis(5-(1-aminocyclobutyl)-1,3,4-thiadiazole-2-carboxamide)]
25 | 18.1 nM | Cc1c(NC(=O)c2cc3c(s2)CNCC3)cccc1-c1cccc(NC(=O)c2cc3c(s2)CNCC3)c1C [Example 32, N,N′-(2,2′-dimethyl-[1,1′-biphenyl]-3,3′-diyl)bis(4,5,6,7-tetrahydrothieno[2,3-c]pyridine-2-carboxamide)]
26 | 0.21 nM | O=C(c1nc2c(s1)CNCC2)N1CCc2c(-c3cccc4c3CCN4C(=O)c3nc4c(s3)CNCC4)cccc21 [Example 33, [4,4′-biindoline]-1,1′-diylbis((4,5,6,7-tetrahydrothiazolo[5,4-c]pyridin-2-yl)methanone)]
27 | 0.62 nM | CN1CCc2nc(C(=O)Nc3cccc(-c4cccc(NC(=O)c5nc6c(s5)CN(C)CC6)c4Cl)c3Cl)sc2C1 [Example 44, N,N′-(2,2′-dichloro-[1,1′-biphenyl]-3,3′-diyl)bis(5-methyl-4,5,6,7-tetrahydrothiazolo[5,4-c]pyridine-2-carboxamide)]
